Test results as given in US20120295887A1, “PHARMACEUTICALLY ACCEPTABLE SALTS OF PYRROLO-NITROGENOUS HETEROCYCLIC DERIVATIVES, PREPARATION METHOD AND MEDICAL USE THEREOF” (SHANGHAI HENGRUI PHARMACEUTICAL CO., LTD., priority 2010, published 2012).
Structures can show the parent of a compound that is named as a salt. Where two headings read alike, the source gives them in different places.

Assays:
[1] = Solubility assay in physiological saline; assay type: physicochemical; conditions: conclusion in words
Procedure: According to the conventional solubility measurement, the solubility of the compound of formula (I) and salts thereof were determined in physiological saline.

[2] = Pharmacokinetics assay in rats (intragastric and tail vein administration, plasma LC/MS/MS); assay type: in vivo; conditions: for F (oral absolute bioavailability) / bioavailability: intragastric 10 mg/kg (calculated by the base part), from AUC0-t vs tail vein injection; for Cmax: 0.5% CMC-Na suspension; for bioavailability: read-out: F (oral absolute bioavailability)
Procedure: The rats were used as experimental animals. The compound of formula (I) and other salts thereof were administrated intragastrically, the maleate of the compound of formula (I) was injected into the tail vein to determine the drug concentration in plasma at different time points by LC/MS/MS method. The pharmacokinetic behavior, characteristics and the oral absolute bioavailability of the compounds in the present invention were studied and evaluated in rats.
The compound of formula (I), compounds of Example 1˜5.
28 healthy adult SD rats, male and female in half, were divided into 7 groups (4 rats in each group) and purchased from SINO-BRITSH SIPPR/BK LAB. ANIMAL LTD., CO, License number: SCXK (Shanghai) 2008-0016.
The intravenous injection administration group: the suitable amount of compounds were weighted, added into physiological saline and diluted to the final volume. The sample concentration was 1.0 mg/mL.
The intragastrical administration group: the suitable amount of compounds were weighted and added into 0.5% CMC-Na to prepare 1.0 mg/mL suspension by using ultrasound device. The sample should be prepared freshly away from light at the time of use.
28 healthy adult SD rats, male and female in half, were divided into 7 groups (4 rats in each group). After an overnight fast, the compound of Example 1, at a dose of 10 mg/kg (calculated by the base part), at a volume of 10 mL/kg, was administered intragastrically or injected into the tail vein.
For the intravenous injection administration group, blood samples (0.2 mL) were taken from orbital sinus at pre administration and at 2 minutes, 15 minutes, 30 minutes, 1.0 hour, 2.0 hours, 4.0 hours, 6.0 hours, 8.0 hours, 12.0 hours, 24.0 hours and 36.0 hours post administration, stored in heparinized tubes and centrifuged for 10 minutes at 3,500 rpm. The plasma samples were stored at −20° C.
For the intragastrical administration group, blood samples were taken at pre administration and at 0.5, 1.0, 2.0, 3.0, 4.0, 6.0, 8.0, 12.0, 24.0 and 36.0 hours post administration. The method to treat the samples was the same with the intravenous injection administration group. The rats were fed 2 hours after administration.
25 μL of rat plasmas taken at various time points after administration were mixed with 20 μL of internal standard solution and […] of methanol for 2 minutes by using a vortexer and the mixture was centrifuged for 10 minutes at 16,000 rpm. 10 pt of the supernatant was analyzed by LC-MS/MS.
25 μL of rat blank plasmas were mixed with a series of standard solutions respectively to obtain plasma concentration of 1.00, 2.00, 5.00, 25.0, 100, 500, 2000 and 5000 ng/mL. 20 μL of internal standard solution and 150 μL of methanol were added and then the mixture was operated according to “plasma sample pretreatment” method. Plasma concentration was used as the abscissa, the ratio of chromatographic peak area between the sample and internal standard was used as the ordinate, the linear regression was carried out by the weighted least square method (w=1/x^2) to obtain the typical standard curve equation.
Compartment model fitting was carried out on the pharmacokinetic behavior of the tested compounds to calculate the main pharmacokinetic parameters, wherein the measured values were taken for Cmax and tmax. Oral absolute bioavailability was calculated according to AUC0-t after intragastrical administration and intravenous injection at tail vein.

[3] = Solubility in conventional solvents (inventor's finding); assay type: physicochemical; conditions: in words
Text: It is necessary to develop new forms of the compound of formula (I) to improve its solubility and pharmacokinetic absorption, which can be used in conventional preparation of dosage forms.

[4] = SD rats, intragastric 10 mg/kg, maleate
[5] = both sexes, Sprague-Dawley (SD), rat, plasma, iv, 10 mg/kg, Vein (tail vein injection) 10 mg/kg, read-out: MRT
[6] = both sexes, Sprague-Dawley (SD), rat, plasma, iv, Vein (tail vein injection) 10 mg/kg
[7] = both sexes, Sprague-Dawley (SD), rat, plasma, iv, Vein (tail vein injection) 10 mg/kg in physiological saline, read-out: AUC0-t
[8] = both sexes, Sprague-Dawley (SD), rat, plasma, po, 10 mg/kg, intragastric 10 mg/kg
[9] = both sexes, Sprague-Dawley (SD), rat, plasma, po, 10 mg/kg
[10] = both sexes, Sprague-Dawley (SD), rat, plasma, po, 10 mg/kg, intragastric 10 mg/kg, read-out: Cmax
[11] = both sexes, Sprague-Dawley (SD), rat, plasma, po, 10 mg/kg, intragastric 10 mg/kg, read-out: AUC0-t
[12] = both sexes, Sprague-Dawley (SD), rat, plasma, po, 10 mg/kg, intragastric 10 mg/kg, read-out: MRT
[13] = both sexes, Sprague-Dawley (SD), rat, plasma, po, 10 mg/kg, intragastric 10 mg/kg, read-out: Tmax
[14] = SD rats, Vein (tail vein injection) 10 mg/kg

For `Cc1c(/C=C2\C(=O)Nc3ccc(F)cc32)[nH]c2c1C(=O)N(C[C@H](O)CN1CCOCC1)CCC2` [Example 1, (R,Z)-2-(5-fluoro-2-oxo-1,2-dihydro-indol-3-ylidenemethyl)-5-(2-hydroxy-3-morpholin-4-yl-propyl)-3-methyl-5,6,7,8-tetrahydro-1H-pyrrolo[3,2-c]azepin-4-one maleate], the “solubility compared with free base and other salts of the compound of formula (I)” value [1] was “Conclusion: Compared with free base and other salts of the compound of formula (I), the solubility of maleate of the compound of formula (I) has significantly improved”, the “F (oral absolute bioavailability)” value ([2]; SD rats, maleate) was 48.2% and the Cmax [2, 4] was 950 ± 370 ng/mL. The AUC(0-t) [2, 4] was 7770 ± 2990 ng·h/mL, the MRT [2, 4] was 6.66 ± 2.05 h and the Tmax [2, 4] was 5.75 ± 2.06 h. For the same compound, the t1/2 [2, 4] was 3.01 ± 0.60 h.
For `Cc1c(/C=C2\C(=O)Nc3ccc(F)cc32)[nH]c2c1C(=O)N(C[C@H](O)CN1CCOCC1)CCC2.O=C(O)C[C@H](O)C(=O)O` [Example 2, (R,Z)-2-(5-fluoro-2-oxo-1,2-dihydro-indol-3-ylidenemethyl)-5-(2-hydroxy-3-morpholin-4-yl-propyl)-3-methyl-5,6,7,8-tetrahydro-1H-pyrrolo[3,2-c]azepin-4-one malate], the MRT [2, 5] was 1.4 ± 0.35 h, the half-life [2, 6] was 358 ± 150 min and the AUC(0-t) [2, 7] was 16100 ± 3970 ng·h/mL. For the same compound, the CL/F [2, 8] was 29.8 mL/min/kg, the half-life [2, 8] was 188 ± 58.2 min and the bioavailability [2, 9] was 30.4%. The Cmax [2, 10] was 850 ± 390 ng/mL, the AUC(0-t) [2, 11] was 4900 ± 2790 ng·h/mL and the MRT [2, 12] was 4.29 ± 1.87 h. For the same compound, the Tmax [2, 13] was 1.75 ± 1.66 h.
Work on `CC(O)C(=O)O.Cc1c(/C=C2\C(=O)Nc3ccc(F)cc32)[nH]c2c1C(=O)N(C[C@H](O)CN1CCOCC1)CCC2` [Example 3, (R,Z)-2-(5-fluoro-2-oxo-1,2-dihydro-indol-3-ylidenemethyl)-5-(2-hydroxy-3-morpholin-4-yl-propyl)-3-methyl-5,6,7,8-tetrahydro-1H-pyrrolo[3,2-c]azepin-4-one lactate] yielded an MRT [2, 5] of 1.4 ± 0.35 h, a half-life [2, 6] of 358 ± 150 min and an AUC(0-t) [2, 7] of 16100 ± 3970 ng·h/mL. The CL/F [2, 8] was 27.3 mL/min/kg, the half-life [2, 8] was 184 ± 72.6 min and the bioavailability [2, 9] was 36.6%. It also gave a Cmax [2, 10] of 810 ± 450 ng/mL, an AUC(0-t) [2, 11] of 5900 ± 3350 ng·h/mL and an MRT [2, 12] of 6.28 ± 1.56 h. The Tmax [2, 13] was 2.5 ± 1 h.
With `Cc1c(/C=C2\C(=O)Nc3ccc(F)cc32)[nH]c2c1C(=O)N(C[C@H](O)CN1CCOCC1)CCC2` [Example 4, (R,Z)-2-(5-fluoro-2-oxo-1,2-dihydro-indol-3-ylidenemethyl)-5-(2-hydroxy-3-morpholin-4-yl-propyl)-3-methyl-5,6,7,8-tetrahydro-1H-pyrrolo[3,2-c]azepin-4-one mesylate] the “F (oral absolute bioavailability)” value ([2]; SD rats, mesylate) was 45.3%, the Tmax ([2]; SD rats, intragastric 10 mg/kg, mesylate) was 3.75 ± 1.71 h and the MRT [2, 5] was 1.4 ± 0.35 h. For the same compound, the half-life [2, 6] was 358 ± 150 min, the AUC(0-t) [2, 7] was 16100 ± 3970 ng·h/mL and the CL/F [2, 8] was 24.8 mL/min/kg. For the same compound, the half-life [2, 8] was 205 ± 51 min, the Cmax [2, 10] was 770 ± 390 ng/mL and the AUC(0-t) [2, 11] was 7300 ± 5870 ng·h/mL. The MRT [2, 12] was 6.68 ± 1.58 h.
`Cc1c(/C=C2\C(=O)Nc3ccc(F)cc32)[nH]c2c1C(=O)N(C[C@H](O)CN1CCOCC1)CCC2.Cl` [Example 5, (R,Z)-2-(5-fluoro-2-oxo-1,2-dihydro-indol-3-ylidenemethyl)-5-(2-hydroxy-3-morpholin-4-yl-propyl)-3-methyl-5,6,7,8-tetrahydro-1H-pyrrolo[3,2-c]azepin-4-one hydrochloride] gave a half-life ([2]; both sexes, Sprague-Dawley (SD), rat, plasma, iv, 10 mg/kg, Vein (tail vein injection) 10 mg/kg) of 358 ± 150 min, an AUC(0-t) ([2]; both sexes, Sprague-Dawley (SD), rat, plasma, iv, 10 mg/kg, Vein (tail vein injection) 10 mg/kg in physiological saline, read-out: AUC0-t) of 16100 ± 3970 ng·h/mL and an MRT [2, 5] of 1.4 ± 0.35 h. For the same compound, the CL/F [2, 8] was 33.8 mL/min/kg, the half-life [2, 8] was 216 ± 31.2 min and the bioavailability [2, 9] was 25.2%. For the same compound, the Cmax [2, 10] was 500 ± 100 ng/mL, the AUC(0-t) [2, 11] was 4070 ± 1630 ng·h/mL and the MRT [2, 12] was 6.8 ± 1.58 h. For the same compound, the Tmax [2, 13] was 4.25 ± 2.06 h.
With `Cc1c(/C=C2\C(=O)Nc3ccc(F)cc32)[nH]c2c1C(=O)N(C[C@H](O)CN1CCOCC1)CCC2` [The compound of formula (I), (R,Z)-2-(5-fluoro-2-oxo-1,2-dihydro-indol-3-ylidenemethyl)-5-(2-hydroxy-3-morpholin-4-yl-propyl)-3-methyl-5,6,7,8-tetrahydro-1H-pyrrolo[3,2-c]azepin-4-one] the “solubility in conventional solvents” value [3] was “poorly soluble”, the MRT [2, 14] was 1.40 ± 0.35 h and the t1/2 [2, 14] was 5.97 ± 2.50 h. For the same compound, the AUC(0-t) ([2]; SD rats, Vein (tail vein injection) 10 mg/kg in physiological saline) was 16120 ± 3970 ng·h/mL, the AUC(0-t) ([2]; SD rats, intragastric 10 mg/kg) was 4490 ± 2790 ng·h/mL and the MRT ([2]; SD rats, intragastric 10 mg/kg) was 5.24 ± 2.23 h. The Tmax ([2]; SD rats, intragastric 10 mg/kg) was 2.00 ± 1.41 h, the t1/2 ([2]; SD rats, intragastric 10 mg/kg) was 3.31 ± 0.57 h and the “F (oral absolute bioavailability)” value ([2]; SD rats) was 27.9%. The Cmax ([2]; SD rats, intragastric 10 mg/kg) was 640 ± 240 ng/mL.
